Measurements reported in patent US8163909B2, “Substituted hydroxyethyl amine compounds as beta-secretase modulators and methods of use” (Amgen Inc., priority 2007, dated 2012).
pIC50: −log10 of the molar value. Read-outs that look alike come from different tables or passages of the source.

How the values were obtained:
[1] = target: Beta Secretase enzyme (BACE) (Homo sapiens, UniProt P56817); test: In vitro enzymatic BACE FRET (fluorescence resonance energy transfer) assay; assay type: biochemical;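 also: fluorescence read after 1 h with 50 nM quenched peptide substrate spanning the BACE cleavage site, in pH 4.2 acetate buffer containing 10% DMSO and nonionic detergent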
Beta Secretase enzyme (BACE), sequence (P56817 46-501): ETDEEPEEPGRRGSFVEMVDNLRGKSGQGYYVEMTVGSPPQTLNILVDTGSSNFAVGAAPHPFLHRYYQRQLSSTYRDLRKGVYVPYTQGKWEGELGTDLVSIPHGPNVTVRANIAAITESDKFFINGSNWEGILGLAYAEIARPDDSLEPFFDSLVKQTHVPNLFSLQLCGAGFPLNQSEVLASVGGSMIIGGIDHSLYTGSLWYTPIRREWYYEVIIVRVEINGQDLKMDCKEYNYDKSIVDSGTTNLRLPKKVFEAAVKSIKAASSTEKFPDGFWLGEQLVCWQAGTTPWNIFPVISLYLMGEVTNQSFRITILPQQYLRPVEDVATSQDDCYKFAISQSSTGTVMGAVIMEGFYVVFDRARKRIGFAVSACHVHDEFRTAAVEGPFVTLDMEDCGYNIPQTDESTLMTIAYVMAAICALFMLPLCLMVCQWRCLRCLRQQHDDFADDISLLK

[2] = test system: Aβ40 in conditioned medium of cells stably expressing Amyloid Precursor Protein (APP); test: In vitro BACE cell-based assay (Aβ40 in conditioned medium, sandwich ELISA);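 also: compounds added as a dilution series, secreted peptide quantified by europium time-resolved fluorescence readout, potency fitted from percent of control versus compound concentration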
[3] = BACE enzyme FRET assay, read-out: BACE1 FRET assay (IC50)
[4] = Homo sapiens, HEK293, HEK cells, cell-based assay, read-out: HEK cell assay (IC50)
[5] = BACE enzyme assay, read-out: BACE1 FRET assay (IC50)
[6] = Table 1, read-out: BACE1 FRET assay
[7] = Homo sapiens, HEK293, Table 1, HEK cells, read-out: HEK cell assay
[8] = HEK cells, cell-based assay, read-out: HEK cell assay (IC50)
[9] = Table 2, read-out: BACE1 FRET assay
[10] = Homo sapiens, HEK293, Table 2, HEK cells, read-out: HEK cell assay

Compound	pIC50 [1, 3]	pIC50 [2, 4]	pIC50 [1, 5]	further results
CC(=O)NC(Cc1ccc(F)cc1)C(O)CNC1CC2(CC(O)C2)Oc2ncc(CC(C)C)cc21 [compound 251, N-((1S,2R)-1-((4-fluorophenyl)methyl)-2-hydroxy-3-(((1s,3S,4′S)-3-hydroxy-6′-(2-methylpropyl)-3′,4′-dihydrospiro[cyclobutane-1,2′-pyrano[2,3-b]pyridin]-4′-yl)amino)propyl)acetamide]	8.20	7.93		
CC(=O)N[C@@H](Cc1ccc(F)cc1)[C@H](O)CN[C@H]1C[C@@]2(CC[C@H]2O)Oc2ncc(CC(C)(C)C)cc21 [compound 116]		6.83	6.93	
CC(=O)N[C@@H](Cc1cccc(F)c1C)[C@H](O)CN[C@H]1CC2(CCC2)Oc2ncc(CC(C)(C)C)cc21 [compound 109]		6.50	7.14	
COCC(=O)N[C@@H](Cc1ccccc1)[C@H](O)CN[C@H]1CC2(CCC2)Oc2ncc(CC3(C(F)(F)F)CC3)cc21 [compound 319]				pIC50 [1, 6]: 7.25; pIC50 [2, 7]: 6.51
COC(C)C(=O)NC(Cc1cc(F)cc(F)c1)C(O)CNC1CC2(CCC2)Oc2ncc(CC(C)(C)C)cc21 [compound 103, (S)—N-((2S,3R)-1-(3,5-difluorophenyl)-3-hydroxy-4-((S)-6-neopentyl-3,4-dihydrospiro[cyclobutane-1,2H-pyrano[2,3-b]pyridin-4-ylamino)butan-2-yl)-2-methoxypropanamide]			8.00	pIC50 [2, 8]: 7.57
COCC(=O)N[C@@H](Cc1cccc(F)c1)[C@H](O)CN[C@H]1CC2(CCC2)Oc2ncc(CC(C)(F)F)cc21 [compound 278]	8.17	8.09		
COCC(=O)N[C@@H](Cc1ccc(F)cc1)[C@H](O)CN[C@H]1CC2(CCC2)Oc2c(-c3ccncc3)cc(CC(C)(C)F)cc21 [compound 538]				pIC50 ([1]; BACE enzyme assay, read-out: BACE1 FRET assay): 7.33; pIC50 ([2]; Homo sapiens, HEK293, HEK cells, read-out: HEK cell assay): 7.37
CC(=O)N[C@@H](Cc1ccc(F)cc1)[C@H](O)CN[C@H]1C[C@@]2(CC[C@@H]2O)Oc2ncc(CC(C)(C)C)cc21 [compound 114]		6.04	5.80	
COCC(=O)N[C@@H](Cc1ccc(F)cc1)[C@H](O)CN[C@H]1CC2(CCC2)Oc2ncc(CC(C)(F)F)cc21 [compound 271]	7.41	7.00		
COC(C)C(=O)NC(Cc1ccc2c(c1)OCO2)C(O)CNC1CC2(CC(C)C2)Oc2ncc(CC(C)(C)C)cc21 [compound 239, (2R)—N-((1S,2R)-1-(1,3-benzodioxol-5-ylmethyl)-3-(((1s,3R,4′S)-6′-(2,2-dimethylpropyl)-3-methyl-3′,4′-dihydrospiro[cyclobutane-1,2′-pyrano[2,3-b]pyridin]-4′-yl)amino)-2-hydroxypropyl)-2-(methyloxy)propanamide]	7.75	7.46		
CCC(=O)Nc1cnc2c(c1)[C@@H](NC[C@@H](O)[C@H](Cc1ccc(F)cc1)NC(C)=O)CC1(CCC1)O2 [compound 85]		< 5.00	6.05	
(2R)—N-((1S,2R)-1-((4-fluorophenyl)methyl)-2-hydroxy-3-(((4′S)-6′-(3,3,3-trifluoropropyl)-3′,4′-dihydrospiro[cyclobutane-1,2′-pyrano[2,3-b]pyridin]-4′-yl)amino)propyl)-2-(methyloxy)propanamide ′(2S)—N-((1S,2R)-1-((4-fluorophenyl)methyl)-2-hydroxy-3-(((4′S)-6′-(3,3,3-trifluoropropyl)-3′,4′-dihydrospiro[cyclobutane-1,2′-pyrano[2,3-b]pyridin]-4′-yl)amino)propyl)-2-(methyloxy)propanamide [compound 192]	5.99			pIC50 [2, 8]: 5.69
CO[C@@H](C)C(=O)N[C@@H](Cc1cc(F)c2c(c1)OCO2)[C@H](O)CN[C@H]1CC2(CCC2)Oc2ncc(CC(C)(C)C)cc21 [compound 304]	7.42	7.05		
COCC(=O)N[C@@H](Cc1ccc2c(c1)OCO2)[C@H](O)CN[C@H]1CC2(CCC2)Oc2cnc(C(F)(F)F)cc21 [compound 266]	5.13	5.90		
CO[C@H](C)C(=O)N[C@@H](Cc1ccc2c(c1)OCO2)[C@H](O)CN[C@H]1CC2(CCC2)Oc2ncc(CC(C)C)cc21 [compound 335]				pIC50 [1, 6]: 7.42; pIC50 [2, 7]: 7.12
COCC(=O)N[C@@H](Cc1ccccc1)[C@H](O)CN[C@H]1CC2(CCC2)Oc2cnc(CC(C)(C)C)cc21 [compound 121]		6.99	7.66	
COCC(=O)N[C@@H](Cc1ccccc1)[C@H](O)CN[C@H]1CC2(CCC2)Oc2ncc(CC(C)(C)CF)cc21 [compound 184]		8.19	8.61	
CC(=O)N[C@@H](Cc1cccc(F)c1)[C@H](O)CN[C@H]1CC2(CCC2)Oc2ncc([C@H](F)[C@H](C)C(F)(F)F)cc21 [compound 322]				pIC50 [1, 6]: 7.96; pIC50 [2, 7]: 7.40
CC(C)(C)Cc1cnc2c(c1)[C@@H](NC[C@@H](O)[C@H](Cc1cc(F)cc(F)c1)NC(=O)C(F)(F)Cl)CC1(CCC1)O2 [compound 96]		7.36	9.64	

Compound	pIC50 [1, 3]	pIC50 [2, 4]	pIC50 [1, 5]	further results
COCC(=O)N[C@@H](Cc1ccc2c(c1)OCO2)[C@@H](CN[C@H]1CC2(CCC2)Oc2ncc([C@H](F)C(C)(C)C)cc21)OC [compound 196]	5.58	5.40		
C[C@@H](F)C(=O)N[C@@H](Cc1ccc2c(c1)OCO2)[C@H](O)CN[C@H]1CC2(CCC2)Oc2ncc(CC(C)(C)C)cc21 [Example 484, (2R)-N-((1S,2R)-1-(1,3-benzodioxol-5-ylmethyl)-3-(((4′S)-6′-(2,2-dimethylpropyl)-3′,4′-dihydrospiro[cyclobutane-1,2′-pyrano[2,3-b]pyridin]-4′-yl)amino)-2-hydroxypropyl)-2-fluoropropanamide]				pIC50 [1, 9]: 7.54; pIC50 [2, 10]: 7.25
CC(=O)N[C@@H](Cc1ccc(F)cc1)[C@H](O)CN[C@H]1CC2(CCC2)Oc2ncc(C[C@@H](C)C(F)F)cc21 [compound 199]	7.35	7.23		
CO[C@H](C)C(=O)N[C@@H](Cc1ccc(F)cc1)[C@H](O)CN[C@H]1CC2(CCC2)Oc2ncc(CC(C)C)cc21 [compound 333]				pIC50 [1, 6]: 7.54; pIC50 [2, 7]: 7.32
CC(=O)N[C@@H](Cc1ccc(F)cc1)[C@H](O)CN[C@H]1CC2(CCC2)Oc2ccc(CC(C)(C)C#N)cc21 [compound 161]		7.76	7.95	
CC(=O)N[C@@H](Cc1cccc(F)c1)[C@H](O)CN[C@H]1CC2(CCC2)Oc2ncc(CC(C)(F)F)cc21 [compound 277]	8.21	8.03		
CC(=O)NC(Cc1ccc(F)cc1)C(O)CNC1CC2(CC(C#N)C2)Oc2ncc(CC(C)(C)C)cc21 [compound 260, N-((1S,2R)-3-(((1s,3R,4′S)-3-cyano-6′-(2,2-dimethylpropyl)-3′,4′-dihydrospiro[cyclobutane-1,2′-pyrano[2,3-b]pyridin]-4′-yl)amino)-1-((4-fluorophenyl)methyl)-2-hydroxypropyl)acetamide]	7.01	7.15		
CC(=O)N[C@@H](Cc1ccc(F)cc1)[C@H](O)CN[C@H]1CC2(CCC2)Oc2ncc(NC(=O)C(C)C)cc21 [compound 86]		5.01	5.13	
CC(=O)N[C@@H](Cc1ccc(F)cc1)[C@H](O)CN[C@H]1CC2(CCC2)Oc2cnc(CC(C)(C)F)cc21 [compound 254]	6.75	6.82		
CC(C)(C)Cc1cnc2c(c1)[C@@H](NC[C@@H](O)[C@H](Cc1ccc3c(c1)OCO3)NC(=O)[C@@H]1CCCO1)CC1(CCC1)O2 [compound 453]				pIC50 [1, 9]: 7.66; pIC50 [2, 10]: 7.43
CO[C@H](C)C(=O)N[C@@H](Cc1cc(F)c2c(c1)OCO2)[C@H](O)CN[C@H]1CC2(CCC2)Oc2ncc(CC(C)C)cc21 [compound 343]				pIC50 [1, 6]: 7.46; pIC50 [2, 7]: 7.38
COCC(=O)N[C@@H](Cc1ccc(F)cc1)[C@H](O)CN[C@H]1CC2(CCC2)Oc2ncc(CC(C)(C)C(F)(F)F)cc21 [compound 76]		7.96	8.43	
CO[C@H](C)C(=O)N[C@@H](Cc1cccc(F)c1)[C@H](O)CN[C@H]1CC2(CCC2)Oc2cnc(CC(C)(C)F)cc21 [compound 253]	7.44	7.13		
1-cyclobutyl-N-((1S,2R)-3-(((4′S)-6′-(2,2-dimethylpropyl)-3′,4′-dihydrospiro[cyclobutane-1,2′-pyrano[2,3-b]pyridin]-4′-yl)amino)-1-((4-fluorophenyl)methyl)-2-hydroxypropyl)-5-oxo-3-pyrrolidinecarboxamide [compound 67]			6.33	pIC50 [2, 8]: 7.20
COCC(=O)N[C@@H](Cc1cccc(F)c1)[C@H](O)CN[C@H]1CC2(CCC2)Oc2ncc(CC(C)(C)C(F)F)cc21 [compound 218]	8.36	8.28		
COCC(=O)N[C@@H](Cc1cc(F)cc(F)c1)[C@H](O)CN[C@H]1CC2(CCC2)Oc2c(-c3ccncc3)cc(CC(C)(C)F)cc21 [compound 579]				pIC50 ([1]; read-out: BACE1 FRET assay (IC50)): 7.85; pIC50 ([2]; Homo sapiens, HEK293, HEK cells, read-out: HEK cell assay (IC50)): 8.30
CCOCC(=O)N[C@@H](Cc1ccc2c(c1)OCO2)[C@H](O)CN[C@H]1CC2(CCC2)Oc2ncc(CC(C)C)cc21 [compound 720]				pIC50 ([1]; BACE enzyme assay IC50, read-out: BACE1 FRET assay): 7.24; pIC50 ([2]; Homo sapiens, HEK293, HEK cell-based assay IC50, read-out: HEK cell assay): 6.87
COCC(=O)N[C@@H](Cc1cccc(F)c1)[C@H](O)CN[C@H]1C[C@]2(C[C@H](O)C2)Oc2ncc(CC(C)(C)C)cc21 [compound 232, N-((1S,2R)-3-(((1s,3S,4′S)-6′-(2,2-dimethylpropyl)-3-hydroxy-3′,4′-dihydrospiro[cyclobutane-1,2′-pyrano[2,3-b]pyridin]-4′-yl)amino)-1-((3-fluorophenyl)methyl)-2-hydroxypropyl)-2-(methyloxy)acetamide]	8.63			pIC50 [2, 8]: 8.49
